Measurements reported in US11370880B1 (FLORIDA ATLANTIC UNIVERSITY BOARD OF TRUSTEES, priority 2018, dated 2022).

System: HUVEC cells
Method: Human umbilical vein endothelial cells (HUVECs) were grown in endothelial growth medium (EGM-2, Lonza) supplemented with 10% fetal bovine serum (Gibco) and 1% PSG (Penicillin-Streptomycin-Glutamine, Gibco). […] At the same time, the cellular toxicity of degradation product of PXDDA on HUVEC cells was also evaluated. For this purpose, 104 cells were first seeded and cultured on the 96-well plates for 3 days. The degradation products were diluted with culture medium to obtain different concentrations (12.5, 25, and 40% v/v), and they were then added into the cells. After 36 h, 20 μl of MTT solution was added and the plated was incubated at 37° C. for 4 h. After adding 200 μl of DMSO, the absorbance was recorded at 570 nm. The measurements were carried out in triplicate.

Substance: poly(xylitol-dodecanedioic acid) [PXDDA]
- toxicity of degradation products to HUVEC cells (MTT): No tangible toxicity
